In publication doi:10.1101/2023.02.27.530254, “Large library docking for cannabinoid-1 receptor agonists with reduced side effects” (bioRxiv, 2024):

Legend:
Assay type in all cases: cell-based
hCB1 [1] = target: T1, hCB1 (Homo sapiens, UniProt P21554); test: Tango β-arrestin-2 recruitment assay, HTLA cells; parameters: expressed in transfected cells; conditions: for Emax: HTLA, read-out: hCB1 Tango ß-arrestin recruitment Emax [95% CI]
Description: The Tango β-arrestin-2 recruitment assays were performed as described. In brief, HTLA cells were transiently transfected with human CB1R or CB2R Tango DNA construct overnight in DMEM supplemented with 10 % FBS, 100 μg ml−1 streptomycin and 100 U ml−1 penicillin. The transfected cells were then plated into poly-L-lysine-coated 384-well white clear-bottom cell culture plates in DMEM containing 1% dialysed FBS at a density of 10,000–15,000 cells per well. After incubation for 6 h, the plates were added with drug solutions prepared in DMEM containing 1% dialysed FBS for overnight incubation. On the day of assay, medium and drug solutions were removed and 20 μl per well of BrightGlo reagent (Promega) was added. The plates were further incubated for 20 min at room temperature and counted using the Wallac TriLux Microbeta counter (PerkinElmer). The results were analysed using GraphPad Prism 9.1. Each experiment was performed in triplicate and functional […] values were determined from the mean of three independent experiments.

hCB1 [2] = target: T1, hCB1; test: bioSens-All ebBRET effector biosensor signaling profiling, HEK293; parameters: host or cells: HEK293 (HEK293SL clone), transient; conditions: for RE, relative efficacy: versus CP-55,940
hCB2 [3] = target: T2, hCB2 (Homo sapiens, UniProt P34972); test: TRUPATH BRET2 GoA dissociation assay, HEK293T; parameters: expressed in transfected cells; host or cells: HEK293T (transient); conditions: HEK-293T, read-out: hCB2 BRET2 + GoA Emax [95% CI]
Description: […]. GoA dissociation BRET2 assays were performed as previously described with minor modifications. In brief, HEK293T cells were co-transfected overnight with human CB2 receptor, GαoA-Rluc, Gβ3, and Gγ9-GFP2 constructs. After 18–24 hours, the transfected cells were seeded into poly-L-lysine-coated 384-well white clear-bottom cell culture plates at a density of 15,000–20,000 cells and incubated with DMEM containing 1% dialyzed FBS, 100 U mL−1 of penicillin and 100 μg ml−1 of streptomycin for another 24 hours. The next day, the medium was aspirated and washed once with 20 μL of assay buffer (1× HBSS, 20 mM HEPES, 0.1% BSA, pH 7.4). Then, 20 μL of drug buffer containing coelenterazine 400a (Nanolight Technology) at 5 μM final concentration was added to each well and incubated for 5 minutes, followed by the addition of 10 μL of 3X designated drug buffer for 5 minutes. Then, 10 μL of 4X final concentrations of ligands were added for 5 minutes. […] BRET ratio was computed as the ratio of the GFP2 emission to RLuc8 emission. […] Each experiment was performed in triplicate and functional IC50 values were determined from the mean of four independent experiments.

hCB2 [4] = target: T2, hCB2; test: bioSens-All ebBRET effector biosensor signaling profiling, HEK293; parameters: host or cells: HEK293 (HEK293SL clone), transient; conditions: for RE, relative efficacy: versus CP-55,940
[5] = HEK293, read-out: hCB1 Gi1 Emax [95% CI]
[6] = HEK293, read-out: hCB1 GoB Emax [95% CI]
[7] = HEK293, read-out: hCB1 Gz Emax [95% CI]
[8] = hCB1 Gi1 EC50 [95% CI], Gi1 sensor
[9] = hCB1 Gi1 pEC50 [95% CI], Gi1 sensor
[10] = hCB1 GoB EC50 [95% CI], GoB sensor
[11] = HEK293, read-out: hCB2 Barr2 + GRK2 Emax [95% CI]
[12] = HEK293, read-out: hCB2 Gi1 Emax [95% CI]
[13] = HEK293, read-out: hCB2 Gi2 Emax [95% CI]
[14] = HEK293, read-out: hCB2 GoB Emax [95% CI]
[15] = HEK293, read-out: hCB2 Gz Emax [95% CI]
[16] = HEK293, read-out: hCB1 Barr2 + GRK2 Emax [95% CI]
[17] = HEK293, read-out: hCB1 G13 Emax [95% CI]
[18] = HEK293, read-out: hCB1 G15 Emax [95% CI]
[19] = HEK293, read-out: hCB1 Gi2 Emax [95% CI]
[20] = hCB1 Barr2 + GRK2 pEC50 [95% CI], ßarrestin-2 PM recruitment sensor with GRK2
[21] = hCB1 G13 EC50 [95% CI], G13 sensor
[22] = hCB1 G15 pEC50 [95% CI], G15 sensor
[23] = hCB1 Gi2 EC50 [95% CI], Gi2 sensor
[24] = hCB1 GoB pEC50 [95% CI], GoB sensor
[25] = hCB1 Gz pEC50 [95% CI], Gz sensor

T1 sequence (P21554 whole entry): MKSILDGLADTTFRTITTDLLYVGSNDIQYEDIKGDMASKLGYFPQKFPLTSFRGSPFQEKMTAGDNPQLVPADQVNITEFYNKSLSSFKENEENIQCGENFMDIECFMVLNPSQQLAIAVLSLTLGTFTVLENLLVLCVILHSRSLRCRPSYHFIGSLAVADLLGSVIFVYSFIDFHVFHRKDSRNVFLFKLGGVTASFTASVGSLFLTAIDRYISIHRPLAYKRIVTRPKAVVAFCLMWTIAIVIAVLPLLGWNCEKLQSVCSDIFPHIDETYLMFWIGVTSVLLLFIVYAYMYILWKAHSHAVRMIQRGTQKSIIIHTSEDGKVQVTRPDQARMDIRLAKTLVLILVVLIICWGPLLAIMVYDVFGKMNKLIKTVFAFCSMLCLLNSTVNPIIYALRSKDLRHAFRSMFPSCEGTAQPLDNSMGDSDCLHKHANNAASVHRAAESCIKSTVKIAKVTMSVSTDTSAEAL
T2 sequence (P34972 whole entry): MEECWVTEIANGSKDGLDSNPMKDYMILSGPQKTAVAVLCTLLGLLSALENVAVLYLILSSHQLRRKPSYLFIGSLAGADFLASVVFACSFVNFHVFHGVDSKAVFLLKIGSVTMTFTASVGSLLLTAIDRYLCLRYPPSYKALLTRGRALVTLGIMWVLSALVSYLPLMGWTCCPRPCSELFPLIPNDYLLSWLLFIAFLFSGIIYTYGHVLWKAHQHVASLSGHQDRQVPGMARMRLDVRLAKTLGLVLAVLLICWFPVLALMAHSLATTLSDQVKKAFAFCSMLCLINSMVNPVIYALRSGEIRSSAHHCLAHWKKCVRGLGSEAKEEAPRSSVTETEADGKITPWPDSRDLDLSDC

## COC(=O)C(NC(=O)c1cc(C)n(-c2cccc(C(F)(F)F)c2)n1)c1cccs1 (stereo not drawn) [‘60154]
hCB1 [1]
  EC50: 794 nM
  Emax: 39%
hCB1 [2]; [5]
  Emax: 92%
hCB1 [2]; [6]
  Emax: 100%
hCB1 [2]; [7]
  Emax: 121%
hCB1 [2]; [8]
  EC50: 2.5 nM
hCB1 [2]; [9]
  EC50: 25.1 nM
hCB1 [2]; [10]
  EC50: 18.4 nM
hCB1 [2]; hCB1 Gz EC50 [95% CI], Gz sensor
  EC50: 17.5 nM
hCB2 [3]
  Emax: 31%

## COC(=O)C(C)(NC(=O)c1cc(C)n(-c2cccc(C(F)(F)F)c2)n1)c1cccs1 (stereo not drawn) [‘4042]
hCB1 [1]
  EC50: 10.7 nM
  Emax: 102%
hCB2 [4]; [11]
  Emax: 33%
hCB2 [4]; [12]
  Emax: 82%
hCB2 [4]; [13]
  Emax: 70%
hCB2 [4]; [14]
  Emax: 61%
hCB2 [4]; [15]
  Emax: 56%
hCB2 [4]; hCB2 Barr2 + GRK2 EC50 [95% CI]
  EC50: 5.5 nM
hCB2 [4]; hCB2 Gi1
  RE, relative efficacy: 0.63
hCB2 [4]; hCB2 Gi1 EC50 [95% CI]
  EC50: 2.7 nM
hCB2 [4]; hCB2 Gi1 pEC50 [95% CI]
  EC50: 2.63 nM
hCB2 [4]; hCB2 Gi2
  RE, relative efficacy: 0.59
hCB2 [4]; hCB2 Gi2 pEC50 [95% CI]
  EC50: 1.26 nM
hCB2 [4]; hCB2 GoB pEC50 [95% CI]
  EC50: 2.51 nM
hCB2 [4]; hCB2 GoB
  RE, relative efficacy: 0.47
hCB2 [4]; hCB2 Gz EC50 [95% CI]
  EC50: 1.36 nM
hCB2 [4]; hCB2 Gz
  RE, relative efficacy: 0.38
hCB2 [4]; hCB2 ßarr2 + GRK2
  RE, relative efficacy: 0.82
hCB1 [2]; [16]
  Emax: 72%
hCB1 [2]; [17]
  Emax: 64%
hCB1 [2]; [18]
  Emax: 105%
hCB1 [2]; [5]
  Emax: 102%
hCB1 [2]; [19]
  Emax: 101%
hCB1 [2]; [6]
  Emax: 103%
hCB1 [2]; [7]
  Emax: 97%
hCB1 [2]; [20]
  EC50: 3.63 nM
hCB1 [2]; hCB1 G13
  RE, relative efficacy: 0.91
hCB1 [2]; [21]
  EC50: 2.1 nM
hCB1 [2]; hCB1 G13 pEC50 [95% CI], G13 sensor
  EC50: 2.04 nM
hCB1 [2]; hCB1 G15
  RE, relative efficacy: 0.74
hCB1 [2]; [22]
  EC50: 0.372 nM
hCB1 [2]; hCB1 Gi1
  RE, relative efficacy: 0.97
hCB1 [2]; [8]
  EC50: 0.48 nM
hCB1 [2]; hCB1 Gi2
  RE, relative efficacy: 1.01
hCB1 [2]; [23]
  EC50: 0.56 nM
hCB1 [2]; [10]
  EC50: 0.64 nM
hCB1 [2]; [24]
  EC50: 0.631 nM
hCB1 [2]; hCB1 GoB
  RE, relative efficacy: 1.04
hCB1 [2]; [25]
  EC50: 0.427 nM
hCB1 [2]; hCB1 Gz
  RE, relative efficacy: 0.62
hCB1 [2]; hCB1 ßarr2 + GRK2
  RE, relative efficacy: 0.81
hCB2 [3]
  Emax: 29%

## COC(=O)[C@@](C)(NC(=O)c1cc(C)n(-c2cccc(C(F)(F)F)c2)n1)c1cccs1 [‘1350]
hCB2 [4]; [11]
  Emax: 30%
hCB2 [4]; [12]
  Emax: 74%
hCB2 [4]; [13]
  Emax: 61%
hCB2 [4]; [14]
  Emax: 59%
hCB2 [4]; [15]
  Emax: 52%
hCB2 [4]; hCB2 Barr2 + GRK2 pEC50 [95% CI]
  EC50: 4.17 nM
hCB2 [4]; hCB2 Gi1
  RE, relative efficacy: 0.29
hCB2 [4]; hCB2 Gi1 EC50 [95% CI]
  EC50: 3.55 nM
hCB2 [4]; hCB2 Gi2
  RE, relative efficacy: 0.40
hCB2 [4]; hCB2 Gi2 pEC50 [95% CI]
  EC50: 1.62 nM
hCB2 [4]; hCB2 GoB pEC50 [95% CI]
  EC50: 2.63 nM
hCB2 [4]; hCB2 GoB
  RE, relative efficacy: 0.40
hCB2 [4]; hCB2 Gz EC50 [95% CI]
  EC50: 2.6 nM
hCB2 [4]; hCB2 Gz pEC50 [95% CI]
  EC50: 2.63 nM
hCB2 [4]; hCB2 Gz
  RE, relative efficacy: 0.22
hCB2 [4]; hCB2 ßarr2 + GRK2
  RE, relative efficacy: 0.92
hCB1 [2]; [16]
  Emax: 63%
hCB1 [2]; [17]
  Emax: 56%
hCB1 [2]; [18]
  Emax: 99%
hCB1 [2]; [5]
  Emax: 92%
hCB1 [2]; [19]
  Emax: 95%
hCB1 [2]; [6]
  Emax: 98%
hCB1 [2]; [7]
  Emax: 94%
hCB1 [2]; [20]
  EC50: 2.19 nM
hCB1 [2]; hCB1 G13
  RE, relative efficacy: 1.64
hCB1 [2]; [21]
  EC50: 0.83 nM
hCB1 [2]; hCB1 G15
  RE, relative efficacy: 1.14
hCB1 [2]; [22]
  EC50: 0.219 nM
hCB1 [2]; hCB1 Gi1
  RE, relative efficacy: 1.98
hCB1 [2]; [9]
  EC50: 0.234 nM
hCB1 [2]; hCB1 Gi2
  RE, relative efficacy: 1.89
hCB1 [2]; [23]
  EC50: 0.28 nM
hCB1 [2]; hCB1 Gi2 pEC50 [95% CI], Gi2 sensor
  EC50: 0.288 nM
hCB1 [2]; [24]
  EC50: 0.288 nM
hCB1 [2]; hCB1 GoB
  RE, relative efficacy: 2.24
hCB1 [2]; [25]
  EC50: 0.347 nM
hCB1 [2]; hCB1 Gz
  RE, relative efficacy: 0.77
hCB1 [2]; hCB1 ßarr2 + GRK2
  RE, relative efficacy: 1.16

## CCCCCCC(C)(C)c1ccc([C@@H]2C[C@H](O)CC[C@H]2CCCO)c(O)c1 [CP-55,940, reference compound]
hCB1 [1]
  Emax: 100%
hCB2 [4]; [11]
  Emax: 100%
hCB2 [4]; [12]
  Emax: 100%
hCB2 [4]; [13]
  Emax: 100%
hCB2 [4]; [14]
  Emax: 100%
hCB1 [2]; HEK293, read-out: hCB1 Barr2 + GRK2 Emax [95% CI], ßarrestin-2 sensor with GRK2, normalized to CP-55,940
  Emax: 89%
hCB1 [2]; HEK293, read-out: hCB1 G13 Emax [95% CI], G13 sensor, normalized to CP-55,940
  Emax: 100%
hCB1 [2]; HEK293, read-out: hCB1 G15 Emax [95% CI], G15 sensor, normalized to CP-55,940
  Emax: 100%
hCB1 [2]; HEK293, read-out: hCB1 Gi1 Emax [95% CI], Gi1 sensor, normalized to CP-55,940
  Emax: 100%
hCB1 [2]; HEK293, read-out: hCB1 Gi2 Emax [95% CI], Gi2 sensor, normalized to CP-55,940
  Emax: 100%
hCB1 [2]; HEK293, read-out: hCB1 GoB Emax [95% CI], GoB sensor, normalized to CP-55,940
  Emax: 100%
hCB2 [3]
  Emax: 99%
